Activity calls are given as the source filed them.

Assay [1] addresses T1, Coagulation factor XII (Homo sapiens, UniProt P00748).
T1 sequence (P00748 whole entry): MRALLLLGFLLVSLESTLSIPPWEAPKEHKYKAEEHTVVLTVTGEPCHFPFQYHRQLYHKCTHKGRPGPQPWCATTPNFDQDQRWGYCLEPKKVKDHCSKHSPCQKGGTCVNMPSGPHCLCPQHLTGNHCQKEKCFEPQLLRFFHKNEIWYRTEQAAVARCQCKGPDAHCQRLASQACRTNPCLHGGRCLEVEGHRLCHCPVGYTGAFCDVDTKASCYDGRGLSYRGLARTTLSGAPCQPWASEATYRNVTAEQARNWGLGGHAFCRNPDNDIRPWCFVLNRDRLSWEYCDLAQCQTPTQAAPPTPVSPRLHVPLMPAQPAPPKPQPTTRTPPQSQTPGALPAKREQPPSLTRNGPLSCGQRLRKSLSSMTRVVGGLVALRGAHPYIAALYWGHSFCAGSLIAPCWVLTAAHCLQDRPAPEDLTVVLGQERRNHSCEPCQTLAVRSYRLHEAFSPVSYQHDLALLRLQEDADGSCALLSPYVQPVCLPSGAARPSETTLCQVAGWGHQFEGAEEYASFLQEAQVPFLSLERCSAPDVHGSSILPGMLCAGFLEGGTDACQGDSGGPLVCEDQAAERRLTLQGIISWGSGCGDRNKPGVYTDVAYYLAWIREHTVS
Format: functional.

In assay [2] the target is T2, Long-chain-fatty-acid--AMP ligase FadD28 (Mycobacterium tuberculosis, UniProt P9WQ59).
T2 sequence (P9WQ59 whole entry): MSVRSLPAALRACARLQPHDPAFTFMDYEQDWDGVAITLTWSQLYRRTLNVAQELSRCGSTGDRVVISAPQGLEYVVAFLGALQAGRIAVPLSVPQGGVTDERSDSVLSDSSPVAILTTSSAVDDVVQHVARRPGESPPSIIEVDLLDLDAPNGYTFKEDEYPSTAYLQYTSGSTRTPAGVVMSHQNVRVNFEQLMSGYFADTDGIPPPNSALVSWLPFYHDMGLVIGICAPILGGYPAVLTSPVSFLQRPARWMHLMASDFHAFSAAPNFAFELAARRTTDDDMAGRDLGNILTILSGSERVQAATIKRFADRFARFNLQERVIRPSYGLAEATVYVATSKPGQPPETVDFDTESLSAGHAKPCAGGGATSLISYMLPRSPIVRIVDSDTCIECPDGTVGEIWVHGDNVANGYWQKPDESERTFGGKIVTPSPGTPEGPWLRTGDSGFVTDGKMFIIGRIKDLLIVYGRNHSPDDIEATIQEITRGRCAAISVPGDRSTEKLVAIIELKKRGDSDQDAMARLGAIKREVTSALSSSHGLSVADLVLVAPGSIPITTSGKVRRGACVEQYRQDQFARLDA
Briefly: Fluorescence polarization aasay to screen for inhibitors that compete for the binding of FadD28 to a bisubstrate Measured in Biochemical System Using Plate Reader - 2147-01_Inhibitor_Dose_CherryPick_Activity. The class given is functional, Mycobacterium tuberculosis H37Rv.

Assay [3] addresses Glucose-6-phosphate 1-dehydrogenase (Homo sapiens, UniProt P11413). Briefly: inhibition of Homo sapiens G6PD, dose series – biochemical, fluorescence, selectivity assay for P. falciparum G6PD inhibitor project, dose response (AID 504792). The class given is functional.
Assay [4] addresses DNA dC->dU-editing enzyme APOBEC-3A (Homo sapiens, UniProt P31941). Briefly: A3A deaminase inhibition for selectivity – biochemical, dose response (AID 504722). Format: functional.
Assay [5] addresses T3, Rac GTPase-activating protein 1 (Homo sapiens, UniProt Q9H0H5).
T3 sequence (Q9H0H5 whole entry): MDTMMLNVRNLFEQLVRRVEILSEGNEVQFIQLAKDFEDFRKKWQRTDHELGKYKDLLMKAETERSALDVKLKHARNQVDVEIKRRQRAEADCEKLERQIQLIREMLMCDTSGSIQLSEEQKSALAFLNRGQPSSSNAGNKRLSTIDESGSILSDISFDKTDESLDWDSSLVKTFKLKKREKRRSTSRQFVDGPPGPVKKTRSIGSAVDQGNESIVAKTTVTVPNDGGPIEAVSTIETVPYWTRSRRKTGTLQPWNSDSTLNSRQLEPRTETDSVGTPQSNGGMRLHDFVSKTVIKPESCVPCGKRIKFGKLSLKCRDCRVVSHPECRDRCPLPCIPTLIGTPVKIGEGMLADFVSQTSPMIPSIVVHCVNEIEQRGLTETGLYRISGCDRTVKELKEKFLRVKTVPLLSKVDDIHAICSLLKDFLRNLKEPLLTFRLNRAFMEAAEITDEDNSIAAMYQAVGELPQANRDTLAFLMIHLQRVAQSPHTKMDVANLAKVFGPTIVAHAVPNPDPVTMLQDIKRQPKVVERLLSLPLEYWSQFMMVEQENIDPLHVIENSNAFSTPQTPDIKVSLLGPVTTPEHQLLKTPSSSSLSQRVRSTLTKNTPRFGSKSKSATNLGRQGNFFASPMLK
Briefly: blockers of MgcRacGAP-driven Rac1 GTP hydrolysis – biochemical, ADP Hunter fluorescence, primary and confirmatory, confirmation (AID 624330). The class given is functional.

Assay [6] concerns the target Eukaryotic translation initiation factor 4E (Mus musculus, UniProt P63073). Briefly: blockers of eIF4G binding by eIF4E – biochemical, TR-FRET, dose response (AID 855).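 Note: potency for disrupting eIF4E binding to eIF4GI seen as loss of FRET.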 Format: functional. Background: TR-FRET usually uses a lanthanide donor and a delayed reading to cut background.
In assay [7] the target is DNA dC->dU-editing enzyme APOBEC-3G (Homo sapiens, UniProt Q9HC16). Briefly: Dose Response confirmation of small molecule APOBEC3G DNA Deaminase Inhibitors via a fluorescence-based single-stranded DNA deaminase assay. [Related pubchem assays (depositor defined):AID493012, AID493028]. The class given is functional.
Sequence of DNA dC->dU-editing enzyme APOBEC-3G (Q9HC16 whole entry): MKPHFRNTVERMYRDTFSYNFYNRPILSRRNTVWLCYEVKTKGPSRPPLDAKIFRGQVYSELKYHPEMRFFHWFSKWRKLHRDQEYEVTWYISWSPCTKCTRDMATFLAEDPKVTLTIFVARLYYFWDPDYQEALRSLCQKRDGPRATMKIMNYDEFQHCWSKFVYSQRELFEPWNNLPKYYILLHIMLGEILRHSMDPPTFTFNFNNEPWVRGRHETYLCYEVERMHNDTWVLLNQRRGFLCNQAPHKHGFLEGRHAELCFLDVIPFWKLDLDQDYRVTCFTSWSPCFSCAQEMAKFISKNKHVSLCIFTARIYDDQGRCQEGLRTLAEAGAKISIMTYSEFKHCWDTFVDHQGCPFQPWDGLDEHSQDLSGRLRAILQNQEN
The target of assay [8] is Peroxisome proliferator-activated receptor gamma/Nuclear receptor coactivator 3 (Homo sapiens, UniProt P37231). The class given is functional.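 Note: agonist potency for raising coactivator recruitment to the receptor.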
Assay [9] concerns the target Peroxisome proliferator-activated receptor gamma/Nuclear receptor coactivator 2 (Homo sapiens, UniProt P37231). The class given is functional.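 Note: agonist potency for raising coactivator recruitment to the receptor.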
In assay [10] the target is Peroxisome proliferator-activated receptor gamma/Nuclear receptor coactivator 1 (Homo sapiens, UniProt P37231). Format: functional.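 Note: agonist potency as compounds enhance coactivator SRC-1 recruitment to PPARgamma.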
Assay [11] in a line: DRD fibroblast viability loss – cell-based, non-viral oncogenic, luminescence, dose response (AID 1934). Format: functional. Conditions: Homo sapiens.
For assay [12], the system named is Streptococcus. Briefly: GAS UMAA2166 growth inhibition – luminescence, BacTiterGlo, counter-screen for streptokinase expression inhibitor project, dose response (AID 1915).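 Note: potency for reduction of bacterial viability or growth.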 Format: functional, organism-based.
The subject of assay [13] is BJ. Briefly: BJ-TERT fibroblast viability loss – cell-based, RAS-independent, luminescence, dose response (AID 1933). The class given is functional. As to conditions: Homo sapiens.
The target in assay [14] is T4, Tyrosine-protein phosphatase non-receptor type 7 (Homo sapiens, UniProt P35236).
T4 sequence (P35236 whole entry): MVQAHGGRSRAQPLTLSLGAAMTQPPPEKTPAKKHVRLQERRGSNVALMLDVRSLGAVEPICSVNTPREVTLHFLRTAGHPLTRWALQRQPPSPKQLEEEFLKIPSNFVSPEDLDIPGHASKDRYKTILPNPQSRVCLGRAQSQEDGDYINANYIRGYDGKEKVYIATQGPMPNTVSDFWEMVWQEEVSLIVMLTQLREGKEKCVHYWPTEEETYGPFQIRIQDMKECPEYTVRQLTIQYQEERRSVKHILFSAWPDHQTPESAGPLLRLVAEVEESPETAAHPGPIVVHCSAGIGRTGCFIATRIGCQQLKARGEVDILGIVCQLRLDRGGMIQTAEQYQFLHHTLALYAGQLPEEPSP
The class given is functional.

The target of assay [15] is T5, Tyrosine-protein phosphatase non-receptor type 22 (Homo sapiens, UniProt Q9Y2R2).
T5 sequence (Q9Y2R2 whole entry): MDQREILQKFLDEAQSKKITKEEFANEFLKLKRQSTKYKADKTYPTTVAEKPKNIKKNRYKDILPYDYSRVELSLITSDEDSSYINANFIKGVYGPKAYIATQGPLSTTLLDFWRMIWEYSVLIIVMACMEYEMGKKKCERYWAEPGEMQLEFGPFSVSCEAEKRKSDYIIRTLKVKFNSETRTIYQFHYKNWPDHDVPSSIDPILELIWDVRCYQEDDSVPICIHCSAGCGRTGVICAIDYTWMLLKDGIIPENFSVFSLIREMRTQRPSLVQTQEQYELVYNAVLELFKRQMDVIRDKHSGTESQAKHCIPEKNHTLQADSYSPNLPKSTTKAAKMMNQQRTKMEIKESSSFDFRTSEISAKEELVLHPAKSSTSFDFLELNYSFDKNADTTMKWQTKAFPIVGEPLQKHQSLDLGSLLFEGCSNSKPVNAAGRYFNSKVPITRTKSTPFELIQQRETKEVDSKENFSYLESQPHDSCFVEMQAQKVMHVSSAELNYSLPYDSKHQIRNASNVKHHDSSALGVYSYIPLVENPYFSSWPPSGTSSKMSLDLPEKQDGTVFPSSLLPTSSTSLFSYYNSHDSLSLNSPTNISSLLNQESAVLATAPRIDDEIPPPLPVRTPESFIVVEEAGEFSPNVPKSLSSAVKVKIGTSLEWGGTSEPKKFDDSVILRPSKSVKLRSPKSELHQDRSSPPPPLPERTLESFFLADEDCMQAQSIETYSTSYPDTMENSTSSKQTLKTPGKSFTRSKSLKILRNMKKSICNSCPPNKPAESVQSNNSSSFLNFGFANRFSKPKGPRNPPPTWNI
The class given is functional.

Assay [16] deals with BJ. Briefly: BJ-TERT-LT-ST fibroblast viability loss – cell-based, RAS-independent, luminescence, dose response (AID 1935).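 Note: BJ fibroblasts immortalized with TERT plus LT and ST oncogenes.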 The class given is functional. Conditions: Homo sapiens.
Assay [17] has as its target T5, Tyrosine-protein phosphatase non-receptor type 22. Format: functional. This is another data set of the same source.
Assay [18] relates to Vero. Briefly: cells. Format: functional. Conditions: Chlorocebus sabaeus.
Assay [19] addresses T6, Streptokinase A (Streptococcus pyogenes serotype M1, UniProt P10520).
T6 sequence (P10520 whole entry): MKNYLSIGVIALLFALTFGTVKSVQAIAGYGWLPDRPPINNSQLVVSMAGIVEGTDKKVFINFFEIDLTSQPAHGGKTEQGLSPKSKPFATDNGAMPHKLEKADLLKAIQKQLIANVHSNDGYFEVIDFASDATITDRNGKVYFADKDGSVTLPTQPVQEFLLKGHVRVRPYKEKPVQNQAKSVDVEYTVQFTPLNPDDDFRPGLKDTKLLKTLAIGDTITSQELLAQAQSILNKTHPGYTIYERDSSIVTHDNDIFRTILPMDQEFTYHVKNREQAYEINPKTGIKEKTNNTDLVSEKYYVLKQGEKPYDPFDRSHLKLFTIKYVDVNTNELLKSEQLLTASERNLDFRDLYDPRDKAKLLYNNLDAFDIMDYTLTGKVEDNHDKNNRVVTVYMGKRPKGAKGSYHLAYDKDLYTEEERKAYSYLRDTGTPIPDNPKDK
Briefly: viability-normalized secreted streptokinase activity reduction – plasminogen activation absorbance, OD405, dose response (AID 1914).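 Note: secreted streptokinase activity via plasminogen activation per viability signal from cell pellet.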 The class given is functional, Streptococcus pyogenes M1 GAS.

Assay [20] deals with BJ. Briefly: cells. Format: functional, cell-based. Conditions: Homo sapiens.
Assay [21] relates to Streptococcus sp. 'group A'. Briefly: Streptococcus pyogenes SK(-)GAS viability under kanamycin – luminescence, BacTiterGlo, confirmation, counter-screen for streptokinase expression inhibitor project, dose response (AID 1900). The class given is functional, organism-based. A general note: A counterscreen serves to expose hits that act by an unwanted route or on another target.

Sequence of Glucose-6-phosphate 1-dehydrogenase (P11413 whole entry): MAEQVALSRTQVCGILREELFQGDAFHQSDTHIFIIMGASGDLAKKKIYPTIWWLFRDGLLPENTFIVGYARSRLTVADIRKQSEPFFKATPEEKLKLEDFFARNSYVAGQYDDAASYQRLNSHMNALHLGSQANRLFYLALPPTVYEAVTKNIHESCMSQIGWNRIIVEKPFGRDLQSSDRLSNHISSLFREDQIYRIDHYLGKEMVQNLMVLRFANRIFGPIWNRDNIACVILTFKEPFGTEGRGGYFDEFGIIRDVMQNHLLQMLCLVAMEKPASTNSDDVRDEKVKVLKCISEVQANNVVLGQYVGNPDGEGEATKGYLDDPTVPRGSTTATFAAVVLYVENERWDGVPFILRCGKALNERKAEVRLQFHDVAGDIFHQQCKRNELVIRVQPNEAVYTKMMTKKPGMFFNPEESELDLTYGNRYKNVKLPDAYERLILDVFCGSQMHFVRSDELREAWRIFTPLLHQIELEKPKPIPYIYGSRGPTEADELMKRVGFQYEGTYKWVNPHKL
Sequence of DNA dC->dU-editing enzyme APOBEC-3A (P31941 whole entry): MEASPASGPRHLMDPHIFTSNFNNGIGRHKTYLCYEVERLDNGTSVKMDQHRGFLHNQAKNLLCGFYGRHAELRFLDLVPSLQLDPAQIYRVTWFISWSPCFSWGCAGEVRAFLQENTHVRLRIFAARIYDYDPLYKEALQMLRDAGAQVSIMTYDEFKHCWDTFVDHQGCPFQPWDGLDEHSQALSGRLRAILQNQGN
Sequence of Eukaryotic translation initiation factor 4E (P63073 whole entry): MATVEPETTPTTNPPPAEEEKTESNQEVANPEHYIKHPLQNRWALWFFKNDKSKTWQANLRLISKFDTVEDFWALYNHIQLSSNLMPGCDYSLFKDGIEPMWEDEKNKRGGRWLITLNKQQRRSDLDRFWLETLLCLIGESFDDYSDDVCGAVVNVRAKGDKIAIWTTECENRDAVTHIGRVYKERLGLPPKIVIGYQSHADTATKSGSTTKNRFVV
Sequence of Peroxisome proliferator-activated receptor gamma/Nuclear receptor coactivator 2 (P37231 whole entry): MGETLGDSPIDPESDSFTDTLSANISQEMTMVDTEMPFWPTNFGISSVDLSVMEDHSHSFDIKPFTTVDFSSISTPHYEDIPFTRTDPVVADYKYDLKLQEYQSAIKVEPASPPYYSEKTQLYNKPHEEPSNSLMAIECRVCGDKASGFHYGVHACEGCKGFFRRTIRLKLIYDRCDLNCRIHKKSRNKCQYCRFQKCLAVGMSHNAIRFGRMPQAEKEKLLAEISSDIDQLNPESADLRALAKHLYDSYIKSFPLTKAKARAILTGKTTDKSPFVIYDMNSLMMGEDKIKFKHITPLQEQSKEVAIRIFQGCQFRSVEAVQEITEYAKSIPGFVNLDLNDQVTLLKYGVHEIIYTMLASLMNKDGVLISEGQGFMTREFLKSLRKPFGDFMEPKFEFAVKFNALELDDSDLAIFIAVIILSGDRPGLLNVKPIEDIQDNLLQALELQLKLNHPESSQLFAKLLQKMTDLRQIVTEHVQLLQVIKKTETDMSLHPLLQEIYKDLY
Sequence of Peroxisome proliferator-activated receptor gamma/Nuclear receptor coactivator 2 (Q15596 whole entry, further chain): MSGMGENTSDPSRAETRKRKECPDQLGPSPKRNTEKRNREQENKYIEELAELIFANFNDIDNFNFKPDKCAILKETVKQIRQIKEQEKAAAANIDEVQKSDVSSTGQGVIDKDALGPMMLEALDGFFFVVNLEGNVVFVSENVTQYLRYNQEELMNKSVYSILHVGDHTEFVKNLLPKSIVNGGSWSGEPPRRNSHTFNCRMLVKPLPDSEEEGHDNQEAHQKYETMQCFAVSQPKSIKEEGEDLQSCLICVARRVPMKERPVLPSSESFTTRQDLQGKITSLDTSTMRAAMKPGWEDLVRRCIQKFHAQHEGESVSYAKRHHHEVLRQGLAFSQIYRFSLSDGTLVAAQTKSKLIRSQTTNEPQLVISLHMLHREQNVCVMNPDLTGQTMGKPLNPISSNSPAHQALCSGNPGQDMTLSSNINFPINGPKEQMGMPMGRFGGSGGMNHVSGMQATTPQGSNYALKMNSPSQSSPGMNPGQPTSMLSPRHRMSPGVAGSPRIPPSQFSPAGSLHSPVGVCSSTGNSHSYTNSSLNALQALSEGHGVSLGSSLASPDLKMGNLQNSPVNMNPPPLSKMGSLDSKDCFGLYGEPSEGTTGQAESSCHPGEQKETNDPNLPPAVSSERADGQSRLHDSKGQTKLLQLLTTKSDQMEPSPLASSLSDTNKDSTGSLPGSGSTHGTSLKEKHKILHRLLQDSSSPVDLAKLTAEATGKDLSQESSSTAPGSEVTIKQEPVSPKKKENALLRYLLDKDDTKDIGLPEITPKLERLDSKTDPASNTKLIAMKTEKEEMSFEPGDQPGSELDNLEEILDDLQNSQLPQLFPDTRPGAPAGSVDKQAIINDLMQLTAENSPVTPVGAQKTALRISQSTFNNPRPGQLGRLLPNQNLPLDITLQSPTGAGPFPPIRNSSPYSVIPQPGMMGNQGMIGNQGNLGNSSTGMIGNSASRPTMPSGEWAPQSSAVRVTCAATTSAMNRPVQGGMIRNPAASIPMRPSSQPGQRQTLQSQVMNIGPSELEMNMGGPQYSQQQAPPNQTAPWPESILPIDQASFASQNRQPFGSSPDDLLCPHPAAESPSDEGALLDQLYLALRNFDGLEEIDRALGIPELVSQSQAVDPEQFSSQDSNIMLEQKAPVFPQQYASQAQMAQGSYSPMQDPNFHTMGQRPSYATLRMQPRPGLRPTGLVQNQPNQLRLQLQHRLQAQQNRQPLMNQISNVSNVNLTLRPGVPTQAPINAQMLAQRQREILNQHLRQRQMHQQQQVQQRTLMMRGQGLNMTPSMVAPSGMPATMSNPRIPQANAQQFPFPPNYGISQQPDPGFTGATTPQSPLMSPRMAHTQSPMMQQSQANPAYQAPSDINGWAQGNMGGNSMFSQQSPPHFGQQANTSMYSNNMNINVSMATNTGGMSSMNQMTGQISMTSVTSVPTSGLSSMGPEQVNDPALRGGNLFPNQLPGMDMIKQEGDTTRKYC

Usually IC50 stands for the concentration at which inhibition is half-maximal. For orientation: AC50 means the midpoint of the concentration-response curve, whichever way the signal moves. Regarding `Cc1ccc(C2=NN(S(=O)(=O)c3ccccc3)C(c3ccccc3O)C2)cc1` (stereo unspecified), the IC50 in [1] was > 50 µM (inactive). The AC50 in [2] was > 100 µM (inactive).
On to `O=C(COC(=O)c1cnccn1)c1ccc([N+](=O)[O-])cc1`, for which the IC50 in assay [3] is > 80 µM (inactive).
For the compound `CCn1c(=O)c2c3c(sc2n2c(=S)[nH]nc12)CCC3`, the IC50 is > 100 µM (inactive) in assay [4], 26.4 µM (active) in assay [5], > 64 µM (inactive) in assay [6] and 4.78 µM (active) in [7].
As for `CCOc1ccc(N(CC(=O)Nc2ccc3c(c2)OCCO3)S(=O)(=O)c2c(C)noc2C)cc1`, the IC50 in assay [1] was > 50 µM (inactive).
With `COc1ccc(CN(C)S(=O)(=O)c2nnc(NC(=O)c3cccc(C)c3)s2)cc1OC`, the IC50 in assay [3] is 61.2 µM (inactive).
Turning to `O=C(COC(=O)COc1ccccc1Cl)Nc1ccccc1OC(F)F`, the IC50 in assay [1] is > 50 µM (inactive).
One may read the EC50 as the concentration giving half of the maximal effect. Consider `CC(C)(C)c1cc(C(=S)N2CCN(CCO)CC2)cc(C(C)(C)C)c1O`, for which the concentration giving a half-maximal response (EC50) in assay [8], in assay [9] and in [10] was > 79.4 µM (not active) in each case. Besides, the results for the IC50 in assay [4] and in assay [7] were > 100 µM (inactive) and 13.4 µM (active), respectively.
Usually CC50 stands for the concentration at which the toxic effect on the cells reaches its halfway point. For `O=C(N/N=C/c1ccccn1)c1ccc(Cl)c(Cl)c1`, the EC50 in assay [11] is > 150 µM (not active); in [12] it was 22.9 µM (active); in assay [13] it was 21.6 µM (active); in assay [16] it was > 150 µM (not active); in [19] it was > 150 µM (not active); in [20] it was > 150 µM (not active). Further, the EC50 in [21] is 6.21 µM (active). Besides, the IC50 in assay [14], in assay [15] and in assay [17] was > 79.4 µM (inactive) throughout. Further, in assay [18], the CC50 was > 25 µM (active).

The record behind these values is ChEMBL document CHEMBL1201862, “PubChem BioAssay data set” (2004).
